Tested on: murine fibroblasts (NIH3T3) over-expressing human IGF-1 receptor
Assay: Test (c): inhibition of IGF-stimulated cell proliferation (BrdU incorporation)
Assay type: cell-based
Conditions: Mus musculus
Protocol: c) Inhibition of IGF-Stimulated Cell Proliferation
The construction of murine fibroblasts (NIH3T3) over-expressing human IGF-1 receptor has been described by Lammers et al (EMBO J, 8, 1369-1375, 1989). These cells show a proliferative response to IGF-I which can be measured by BrdU incorporation into newly synthesised DNA. Compound potency was determined as causing inhibition of the IGF-stimulated proliferation in the following assay:
Compounds are initially dissolved in DMSO to 10 mM, followed by dilutions in DMEM+1% FCS+glutamine to give a range from […] in 1-0.00045% DMSO final concentration in assay well.
Exponentially growing NIH3T3/IGFR cells were harvested and seeded in complete growth medium into a flat-bottomed 96 well tissue culture grade plate (Costar 3525) at 1.2×10^4 cells per well in a volume of 100 μl.
Growth medium was carefully removed from each well using a multi-channel pipette. Wells were carefully rinsed three times with 200 μl with HBSS. 100 μl of starvation medium was added to each well and the plate was re-incubated for 24 hours.
50 μl of a 4× concentrate of test compound was added to appropriate wells. Cells were incubated for 30 minutes with compound alone before the addition of IGF. […]
The incorporation of BrdU in the cells (after a 4 h incorporation period) was assessed using the BrdU Cell Proliferation Elisa according to the manufacturer's protocol.

Compound | IC50
Cc1cc(Nc2cc(N3CCOCC3)nc(N3CCC3c3cc(-c4ccccn4)no3)n2)n[nH]1 (centres unmarked) [Example 2, 6-Morpholino-2-{2-[3-(pyrid-2-yl)isoxazol-5-yl]azetidin-1-yl}-4-(5-methyl-1H-pyrazol-3-ylamino)pyrimidine] | 0.04 µM
Cc1cc(Nc2cc(C)[nH]n2)nc(N2CCC2c2cc(-c3ccccn3)no2)n1 (centres unmarked) [Example 4, 6-Methyl-2-{2-[3-(pyrid-2-yl)isoxazol-5-yl]azetidin-1-yl}-4-(5-methyl-1H-pyrazol-3-ylamino)pyrimidine] | 0.06 µM
